# Data taken from article PMC8087809 (Cell Death & Disease, 2021).
# Assays:
# [1] = test system: RPMI-8226 BTZ-DR cells; experiment: Annexin V flow cytometry in bortezomib-resistant cells; type: cell-based, human
# Experimental: (§1) Cell viability was detected by Cell Counting Kit-8 (CCK-8) (Dojindo Laboratories, Japan). MM cells were seeded on 96-well plates and placed in an incubator for 24 h. After being treated with drugs for another 72 h, cell viability was examined using the CCK-8 reagent. The CellTiter-Glo Luminescent Cell Viability Assay Kit (Promega, USA) was used to determine the viability of CD138^+ cells and PBMCs. For flow cytometry, MM cells were seeded in 6-well plates and placed in an incubator for 24 h. Then, the MM cells were incubated with drugs for another 24 h and collected for flow cytometry analysis. The cell cycle was examined by flow cytometry using a propidium iodide (PI) staining assay kit (BD Biosciences, USA). Cell apoptosis was detected by flow cytometry using the Annexin V/PI Kit (BD Biosciences, USA).
# It is known that drug resistance limits the application of proteasome inhibitors in clinical treatment.
# [2] = test system: C57BL/6 mice; experiment: Cardiotoxicity in C57BL/6 mice (echocardiography, serum enzymes, histopathology); type: in vivo, mouse; conditions: 8 mg/kg i.p. every 2 days for 1 week
# Experimental: On day 7, the mice were sacrificed after an echocardiography test to harvest the serum for biochemical estimations. Biochemical estimations, including alanine aminotransferase (ALT), aspartate transaminase (AST), lactic dehydrogenase (LDH), creatine kinase-MB (CK-MB), and creatine kinase (CK), were tested using an autoanalyzer (Siemens, USA). Freshly harvested cardiac tissue was fixed in 4% buffered formalin solution for 24 h and embedded in paraffin wax. Sections ([…] thick) were obtained from each sample and stained with H&E. Histologic observation was performed with a Nikon i55 optical microscope (Nikon Corporation, Japan).
# In addition, CT-L activity recovered in a time-dependent manner, as previously discovered in vitro (Fig. 7B). […] The echocardiographic analysis was performed at baseline (day 0) and endpoint (day 7) (Fig. 7D). […] We also examined the levels of CK, CK-MB, LDH, ALT, and AST in the blood serum from the treated mice.
# [3] = test system: RPMI-8226 cells; experiment: CCK-8 cell viability, RPMI-8226; type: cell-based; conditions: Homo sapiens; RPMI-8226, 72h
# Experimental: as §1
# (§2) The Cell Counting Kit-8 (CCK-8) assay was used for cell viability assessment. CCK-8 provided a highly water-soluble tetrazole salt, WST-8, which would produce a water-soluble orange formazan in the presence of dehydrogenase derived from living cells. The OD value was detected at 450 nm with a microplate analyzer to indirectly reflect the number of living cells. […] Among the four patients, patients 1 (Fig. 2E), 2 (Fig. 2F), and 3 (Fig. 2G) were newly diagnosed, and patient 4 (Fig. 2H) had experienced relapse after prior therapies.
# [4] = test system: six non-proteasomes; experiment: Non-proteasome substrate-based assay (six non-proteasomes)
# Experimental: A standard substrate-based assay of non-proteasome was performed as described (GenScript, China)[19].
# [5] = test system: MM patient-derived CD138+ cells; experiment: Viability of MM patient-derived BM CD138+ cells; type: cell-based; conditions: Homo sapiens, primary MM cell
# Experimental: Human MM.1S (dexamethasone-sensitive), MM.1R (dexamethasone-resistant), ARP1, and RPMI-8226 MM cell lines were obtained from American Type Culture Collection (ATCC, Rockville, USA) and cultured in RPMI-1640 medium (Gibco-BRL, USA) supplemented with 10% fetal bovine serum (Gibco, USA) and 1% penicillin/streptomycin (Gibco, USA). All the cells are maintained in 5% CO2 at 37 °C and have been tested for mycoplasma contamination. Peripheral blood mononuclear cells (PBMCs) were collected from healthy volunteers. BM mononuclear cells and PBMCs from MM patients were isolated by Ficoll-Hypaque density-gradient separation. CD138^+ cells were isolated from BM mononuclear cells of MM patients using CD138^+ Micro Beads and the Auto MACS magnetic cell sorter (Miltenyi Biotech, Germany). All primary samples were obtained with informed consent from patients with MM or healthy donors according to the Declaration of Helsinki. This study was approved by the Review Committee of the First Affiliated Hospital of Nanjing Medical University.
# as §1, §2
# [6] = test system: proteasome CT-L activity in MM.1S cells; experiment: Proteasome-Glo cell-based assay, CT-L activity in MM.1S cells; conditions: read-out: IC50 of cellular proteasome CT-L activity, treated 1 h
# Experimental: (§3) In vitro, the 20S proteasome activity of cells was detected by using the Proteasome-Glo Assay (Promega, USA) either after drug treatment for 4, 24, or 48 h in fresh medium.
# (§4) Proteasome activity was measured by the Proteasome-Glo cell-based assay.
# [7] = test system: NF-κB activity in NF-κB-luc HEK293T cells; experiment: NF-κB luciferase reporter assay, TNF-α stimulated; conditions: Homo sapiens, HEK-293T, read-out: IC50 of NF-κB luciferase activity
# Experimental: The plasmids pcDNA3.1-(+)-NF-κB and pcDNA3.1-(+)-Renilla were mixed with Lipofectamine 2000 (Invitrogen, USA) and then transfected into HEK293T cells (Institute of Biochemistry and Cell Biology, China). […] The activity of NF-κB was examined by the Dual-Luciferase® Reporter Assay System (Promega, USA) as previously described[22].
# Activation of NF-κB was determined by luciferase reporter gene assay using stably transfected NF-κB-luc HEK293T cells. The NF-κB signaling pathway was activated by TNF-α stimulation.
# [8] = test system: ARP1 cells; experiment: CCK-8 cell viability, ARP1; type: cell-based; conditions: Homo sapiens, ARP-1; ARP1, 72h
# Experimental: as §1, §2
# [9] = test system: MM.1S cells; experiment: CCK-8 cell viability, MM.1S; type: cell-based; conditions: Homo sapiens, MM1.S, 72h
# Experimental: as §1, §2
# [10] = test system: proteasome CT-L activity in MM.1R cells; experiment: Proteasome-Glo cell-based assay, CT-L activity in MM.1R cells; conditions: read-out: IC50 of cellular proteasome CT-L activity, treated 1 h
# Experimental: as §3, §4
# [11] = target: T1, hERG channels (Homo sapiens, UniProt Q12809); experiment: hERG whole-cell patch-clamp, tail current; type: cell-based
# T1 construct: expressed in transfected cells; host or cells: HEK293T
# Experimental: The activation of the hERG pathway was detected by the whole-cell patch-clamp technique at room temperature (22 ± 1 °C) using an AXON 200B amplifier through a digitizer (DigiData 1440A, Molecular Devices, USA) controlled by pClamp software (v10.0) as previously described.
# Human ether-à-go-go-related gene (hERG) K^+ channels are vital in cardiac repolarization[28],[29]. Drug cardiotoxicity can be partially attributed to hERG channel dysfunction that leads to long QT syndrome and ventricular action potential delay. […] The real-time current was measured during drug treatment. Figure 8A presents the command waveform of the tail-current protocol under voltage-clamp mode.
# [12] = test system: proteasome CT-L activity in RPMI-8226 cells; experiment: Proteasome-Glo cell-based assay, CT-L activity in RPMI-8226 cells; conditions: read-out: IC50 of cellular proteasome CT-L activity, treated 1 h
# Experimental: as §3, §4
# [13] = test system: MM.1R cells; experiment: CCK-8 cell viability, MM.1R; type: cell-based; conditions: Homo sapiens, 72h
# Experimental: as §1, §2
# [14] = test system: MM patients; conditions: carfilzomib-treated MM patients ref 13, 14; cited from earlier work
# [15] = test system: ARP1 xenografts; experiment: ARP1 xenograft in BALB/c nude mice; type: in vivo, mouse; conditions: i.v. 4 mg/kg twice a week
# Experimental: BALB/c nude mice (male, 4–6 weeks old) were purchased from Ziyuan Co., Ltd. (Hangzhou, China). ARP1 cells (1 × 10^6 cells in 100 μl PBS) were injected subcutaneously into the hindquarters of each mouse. […] All mice were observed every 2 days for at least 7 weeks. Tumor growth was assessed by calculating volume according to the following equation: volume = a × b^2/2, where a is the widest length and b is the perpendicular diameter. On the appointed day, fifteen tumor tissue samples were removed from the mice for hematoxylin and eosin (H&E) staining and stained with Ki67 and CD138 antibodies. Investigators were blinded to the group allocation during measuring tumor size, weight, and performing staining. All animal procedures were approved by the Institutional Review Board of the College of Life Science, Nanjing Normal University (Approval No. IACUC-20200506).
# We next validated the anti-tumor role of D395 in vivo. Human MM cell line ARP1 (1 × 10^6 cells per mouse) were injected subcutaneously into BALB/c nude mice. […] The medication was given twice a week. Tumor size was measured every 3 days (Fig. 5A). […] On the endpoint day, all the mice were sacrificed, and tumors were collected (Fig. 5B, C). […] Tumor tissues were sampled for immunohistochemistry. The tissues were stained for Ki67, a cell proliferation marker, to show tumor growth (Fig. 5E).
# T1 sequence (Q12809 whole entry): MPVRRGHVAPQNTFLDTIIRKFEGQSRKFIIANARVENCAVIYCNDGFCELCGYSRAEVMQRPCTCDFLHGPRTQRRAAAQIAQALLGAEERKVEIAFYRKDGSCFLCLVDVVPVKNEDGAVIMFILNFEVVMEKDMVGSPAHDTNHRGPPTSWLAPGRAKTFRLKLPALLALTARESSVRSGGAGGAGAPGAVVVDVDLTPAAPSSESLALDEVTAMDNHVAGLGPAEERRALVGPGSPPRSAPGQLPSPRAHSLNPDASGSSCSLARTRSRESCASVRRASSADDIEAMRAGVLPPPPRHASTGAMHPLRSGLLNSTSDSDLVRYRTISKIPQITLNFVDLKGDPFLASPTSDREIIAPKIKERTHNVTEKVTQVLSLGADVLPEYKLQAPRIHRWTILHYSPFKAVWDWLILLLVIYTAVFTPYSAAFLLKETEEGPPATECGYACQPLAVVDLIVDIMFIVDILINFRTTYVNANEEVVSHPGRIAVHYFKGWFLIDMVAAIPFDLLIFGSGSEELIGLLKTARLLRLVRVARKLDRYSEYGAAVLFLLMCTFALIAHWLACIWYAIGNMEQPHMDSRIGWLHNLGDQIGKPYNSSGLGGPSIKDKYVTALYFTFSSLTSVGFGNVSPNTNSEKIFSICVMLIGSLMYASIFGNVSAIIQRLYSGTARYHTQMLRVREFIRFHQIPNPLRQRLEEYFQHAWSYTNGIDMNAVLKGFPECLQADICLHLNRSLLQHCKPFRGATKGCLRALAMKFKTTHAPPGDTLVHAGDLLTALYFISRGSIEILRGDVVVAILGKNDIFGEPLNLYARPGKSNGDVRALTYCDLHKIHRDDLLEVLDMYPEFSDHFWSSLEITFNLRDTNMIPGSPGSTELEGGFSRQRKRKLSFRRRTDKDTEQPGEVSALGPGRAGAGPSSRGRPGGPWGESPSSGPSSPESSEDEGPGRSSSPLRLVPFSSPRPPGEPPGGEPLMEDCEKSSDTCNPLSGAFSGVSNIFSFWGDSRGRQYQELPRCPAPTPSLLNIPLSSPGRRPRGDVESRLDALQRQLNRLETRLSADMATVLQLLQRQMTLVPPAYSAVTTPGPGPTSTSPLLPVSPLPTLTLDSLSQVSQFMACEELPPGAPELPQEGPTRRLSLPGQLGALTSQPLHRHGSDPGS
compound,measurement,setting,value
"CC(C)C[C@H](NC(=O)[C@H](Cc1ccccc1)NC(=O)c1cnccn1)B(O)O [bortezomib, Bortezomib]",Apoptotic population / cell death,[1],lower than that of the RPMI-8226 WT group
CC(C)C[C@H](NC(=O)[C@H](CCc1ccccc1)NC(=O)CN1CCOCC1)C(=O)N[C@@H](Cc1ccccc1)C(=O)N[C@@H](CC(C)C)C(=O)[C@@]1(C)CO1 [Carfilzomib],Heart histological analysis (H&E),[2],myocardial degeneration and myocardial fiber damage with cytoplasmic vacuoles
same,FS% and EF% (echocardiography),[2]; day 7,the FS% and EF% decreased in both the carfilzomib and D395 groups
same,Serum CK-MB and LDH levels,[2]; day 7,increased in the carfilzomib group
same,"LVEDD, LVESD, LVEDV, LVESV",[2]; versus control group,"No significant differences in LVEDD, LVESD, LVEDV, or LVESV"
same,IC50,[3],13.5 ± 1.9 nM
same,Inhibitory effect on six non-proteasomes,[4],neither carfilzomib nor D395 exerted an inhibitory effect
same,IC50,"[5]; 24 h, patient 1 (newly diagnosed)",56.5 ± 2.5 nM
same,IC50,"[5]; 24 h, patient 2 (newly diagnosed)",354 ± 19.4 nM
same,IC50,"[5]; 24 h, patient 3 (newly diagnosed)",444 ± 48 nM
same,IC50,"[5]; 24 h, patient 4 (relapsed)",38 ± 5.8 nM
same,IC50,"[5]; 36 h, patient 2 (newly diagnosed)",339 ± 22.8 nM
same,IC50,"[5]; 36 h, patient 3 (newly diagnosed)",288 ± 19.5 nM
same,IC50,[6],13.8 nM
same,IC50,[7],35.7 nM
same,IC50,[8],35.6 ± 5.1 nM
same,IC50,[9],7 ± 0.9 nM
same,IC50,[10],18.1 nM
same,IC50,[11],25700 nM
same,IC50,[12],25.8 nM
same,IC50,[13],11 ± 0.9 nM
same,Incidence of cardiotoxicity,[14],5–10%
same,Tumor growth,[15]; ARP1 xenograft,grew slower than those in the control group
same,Weight of the mice,[15]; treatment period,the weight of the mice did not change
same,"CT-L, C-L, and T-L activities in tumor samples",[15]; tumors at endpoint,lower in the carfilzomib and D395 groups than in the control group
